Data from patent US20230128252A1, “PHARMACEUTICAL COMPOSITIONS” (Shenzhen Pharmacin Co., Ltd., priority 2020, published 2023).

What was measured:
[1] = Compatibility of clofazimine and excipients (60° C., 3 days, HPLC); assay type: physicochemical; settings: for Degradation total impurities: 60° C. for 3 days
Method: Clofazimine was dissolved into different excipients with different mass ratios, then the mixture was placed in the condition of 60° C. for 3 days. The total degradation impurities were measured by HPLC and summarized below in Table 25. The excipients were classified by the results as below.

[2] = preparation of clofazimine carbomer gel with organic solvents; assay type: physicochemical; settings: Carbomer 940 gel in water, pH 7.0
[3] = Skin permeability of clofazimine preparations (vertical Franz diffusion cells); assay type: in vitro ADME, NU/NU nude mice

CC(C)/N=c1\cc2n(-c3ccc(Cl)cc3)c3ccccc3nc-2cc1Nc1ccc(Cl)cc1 [Clofazimine, N,5-bis(4-chlorophenyl)-3-propan-2-ylimino phenazin-2-amine]
Degradation total impurities ([1]; trascutol (1:100)): >1%
Degradation total impurities ([1]; tween 80 (1:100)): >1%
Degradation total impurities ([1]; tween 80 + water (1:100:800)): >1%
chemical stability of clofazimine in lipid excipients ([1]; lipid excipients such as PEG 3350, stearyl alcohol, vaseline, and liquid paraffin): enhanced chemical stability
outcome of gel preparation ([2]; solvent Laurocapram): formation of separated layers
outcome of gel preparation ([2]; solvent Propylene glycol): clofazimine precipitation
clofazimine content (Table 12, FIG. 3) ([3]; Gel, PEG 400 10 wt %): 1.6000 μg/cm^2
clofazimine content (Table 12, FIG. 3) ([3]; Gel, Transcutol): 0.1894 μg/cm^2
clofazimine content (Table 12, FIG. 3) ([3]; Gel, Tween 80 10 wt %): 0.9800 μg/cm^2
clofazimine content (Table 12, FIG. 3) ([3]; Gel, labrasol 10 wt %): 0.8200 μg/cm^2
clofazimine content (Table 12, FIG. 3) ([3]; Solvents (solution), PEG 400 99.9 wt %): 0.2700 μg/cm^2
clofazimine content (Table 12, FIG. 3) ([3]; Solvents (solution), Transcutol): 0.0596 μg/cm^2
clofazimine content (Table 12, FIG. 3) ([3]; Solvents (solution), Tween 80 99.9 wt %): 0.2500 μg/cm^2
clofazimine content (Table 12, FIG. 3) ([3]; Solvents (solution), labrasol 99.9 wt %): 0.2600 μg/cm^2
clofazimine content ([3]; gel: Carbomer 940 0.5, Transcutol 20, Lecithin 5 wt %, pH 7.0, clofazimine amount 0.01%): 0.0568 ug/cm^2
clofazimine content ([3]; gel: Carbomer 940 0.5, Transcutol 20, Lecithin 5 wt %, pH 7.0, clofazimine amount 0.02%): 0.1971 ug/cm^2
clofazimine content ([3]; gel: Carbomer 940 0.5, Transcutol 20, Lecithin 5 wt %, pH 7.0, clofazimine amount 0.05%): 0.5394 ug/cm^2
clofazimine content ([3]; gel: Carbomer 940 0.5, Transcutol 20, Lecithin 5 wt %, pH 7.0, clofazimine amount 0.1%): 0.8014 ug/cm^2
clofazimine content ([3]; gel: Carbomer 940 0.5, Transcutol 20, Lecithin 5 wt %, pH 7.0, clofazimine amount 0.2%): 0.7102 ug/cm^2
clofazimine content ([3]; gel: Carbomer 940 0.5, Transcutol 20, Lecithin 5 wt %, pH 7.0, clofazimine amount 0.5%): 0.7512 ug/cm^2
clofazimine content ([3]; gel: clofazimine 0.1, Carbomer 940 0.5, Transcutol 20, Lecithin 5 wt %, pH 6.0): 0.4246 ug/cm^2
clofazimine content ([3]; gel: clofazimine 0.1, Carbomer 940 0.5, Transcutol 20, Lecithin 5 wt %, pH 7.0): 0.4146 ug/cm^2
clofazimine content ([3]; gel: clofazimine 0.1, Carbomer 940 0.5, Transcutol 20, Lecithin 5 wt %, pH 8.0): 0.3463 ug/cm^2
clofazimine content ([3]; gel: clofazimine 0.1, Carbomer 940 0.5, Transcutol 20, Lecithin 5 wt %, pH 9.0): 0.2970 ug/cm^2
clofazimine content ([3]; gel: clofazimine 0.1, Carbomer 940 0.5, Transcutol 20, Lecithin 5 wt %, pH 9.5): 0.2463 ug/cm^2
clofazimine content ([3]; gel: clofazimine 0.1, Carbomer 940 0.5, Transcutol 20 wt %, pH 7.0, Control (water instead of penetration enhancer)): 0.1331 ug/cm^2
clofazimine content ([3]; gel: clofazimine 0.1, Carbomer 940 0.5, Transcutol 20 wt %, pH 7.0, lecithin 2%): 0.2272 ug/cm^2
clofazimine content ([3]; gel: clofazimine 0.1, Carbomer 940 0.5, Transcutol 20 wt %, pH 7.0, lecithin 3%): 0.2745 ug/cm^2
clofazimine content ([3]; gel: clofazimine 0.1, Carbomer 940 0.5, Transcutol 20 wt %, pH 7.0, lecithin 4%): 0.3026 ug/cm^2
clofazimine content ([3]; gel: clofazimine 0.1, Carbomer 940 0.5, Transcutol 20 wt %, pH 7.0, lecithin 5%): 0.3578 ug/cm^2
clofazimine content ([3]; gel: clofazimine 0.1, Carbomer 940 0.5, Transcutol 20 wt %, pH 7.0, lecithin 6%): 0.3335 ug/cm^2
clofazimine content ([3]; gel: clofazimine 0.1, Carbomer 940 0.5, Transcutol 20 wt %, pH 7.0, lecithin 10%): 0.3968 ug/cm^2
clofazimine content ([3]; gel: clofazimine 0.1, Carbomer 940 0.5, Transcutol 20 wt %, pH 7.0, lecithin 19%): 0.2989 ug/cm^2
clofazimine content ([3]; gel: clofazimine 0.1, Carbomer 940 0.5, Transcutol 20 wt %, pH 7.0, penetration enhancer 4 wt %: DMSO): 0.1806 ug/cm^2
clofazimine content ([3]; gel: clofazimine 0.1, Carbomer 940 0.5, Transcutol 20 wt %, pH 7.0, penetration enhancer 4 wt %: Ethanol): 0.2055 ug/cm^2
clofazimine content ([3]; gel: clofazimine 0.1, Carbomer 940 0.5, Transcutol 20 wt %, pH 7.0, penetration enhancer 4 wt %: Lecithin): 0.9881 ug/cm^2
clofazimine content ([3]; gel: clofazimine 0.1, Carbomer 940 0.5, Transcutol 20 wt %, pH 7.0, penetration enhancer 4 wt %: Octanol): 0.6230 ug/cm^2
clofazimine content ([3]; gel: clofazimine 0.1, Carbomer 940 0.5, Transcutol 20 wt %, pH 7.0, penetration enhancer 4 wt %: Oleic acid): 0.2344 ug/cm^2
clofazimine content ([3]; gel: clofazimine 0.1, Carbomer 940 0.5, Transcutol 20 wt %, pH 7.0, penetration enhancer 4 wt %: SDS (0.05%)): 0.1829 ug/cm^2
clofazimine content ([3]; gel: clofazimine 0.1, Carbomer 940 0.5, Transcutol 20 wt %, pH 7.0, penetration enhancer 4 wt %: Tween 20): 0.1535 ug/cm^2
clofazimine content ([3]; gel: clofazimine 0.1, Carbomer 940 0.5, Transcutol 20 wt %, pH 7.0, penetration enhancer 4 wt %: Tween 80): 0.2484 ug/cm^2
clofazimine content ([3]; gel: clofazimine 0.1, Carbomer 940 0.5 wt %, pH 7.0, solvent 10 wt % PEG 400, 4 hours): 1.6000 ug/cm^2
clofazimine content ([3]; gel: clofazimine 0.1, Carbomer 940 0.5 wt %, pH 7.0, solvent 10 wt % Transuctol, 4 hours): 0.1894 ug/cm^2
clofazimine content ([3]; gel: clofazimine 0.1, Carbomer 940 0.5 wt %, pH 7.0, solvent 10 wt % Tween 80, 4 hours): 0.9800 ug/cm^2
clofazimine content ([3]; gel: clofazimine 0.1, Carbomer 940 0.5 wt %, pH 7.0, solvent 10 wt % labrasol, 4 hours): 0.8200 ug/cm^2
clofazimine content ([3]; gel: clofazimine 0.1, Transcutol 20, Lecithin 5 wt %, pH 7.0, Carbomer 940 amount 0.5%): 0.4871 ug/cm^2
clofazimine content ([3]; gel: clofazimine 0.1, Transcutol 20, Lecithin 5 wt %, pH 7.0, Carbomer 940 amount 0.8%): 0.3054 ug/cm^2
clofazimine content ([3]; gel: clofazimine 0.1, Transcutol 20, Lecithin 5 wt %, pH 7.0, Carbomer 940 amount 1.0%): 0.3205 ug/cm^2
clofazimine content ([3]; inner skin, 4 hours, solution, clofazimine 100 mg in 99.9 g Ethanol): 0.5565 ug/cm^2
clofazimine content ([3]; inner skin, 4 hours, solution, clofazimine 100 mg in 99.9 g KHS-15): 0.0660 ug/cm^2
clofazimine content ([3]; inner skin, 4 hours, solution, clofazimine 100 mg in 99.9 g Laurocapram): 0.3593 ug/cm^2
clofazimine content ([3]; inner skin, 4 hours, solution, clofazimine 100 mg in 99.9 g Oleic acid): 0.0577 ug/cm^2
clofazimine content ([3]; inner skin, 4 hours, solution, clofazimine 100 mg in 99.9 g PEG 400): 0.1174 ug/cm^2
clofazimine content ([3]; inner skin, 4 hours, solution, clofazimine 100 mg in 99.9 g Transuctol): 0.0596 ug/cm^2
clofazimine content ([3]; inner skin, 4 hours, solution, clofazimine 100 mg in 99.9 g Tween 20): 0.0639 ug/cm^2
clofazimine content ([3]; inner skin, 4 hours, solution, clofazimine 100 mg in 99.9 g Tween 80): 0.0660 ug/cm^2
